Assay: xn = mol fraction of the nth substance listed
Conditions: 101.3 kPa, Liquid; for viscosity: Concentric cylinders viscometry; for mass density: Vibrating tube method

O=S1(=O)CCCC1 [sulfolane] + CCCC[n+]1ccn(C)c1.O=S(=O)([N-]S(=O)(=O)C(F)(F)F)C(F)(F)F
Conditions | mass density [kg/m3] | viscosity [mPa·s]
293.15 K, x2 = 0.1 | 1315.1 | 16.7
293.15 K, x2 = 0.1999 | 1345.9 | 19.8
293.15 K, x2 = 0.3001 | 1368.7 | 23.8
293.15 K, x2 = 0.4 | 1386.1 | 28.2
293.15 K, x2 = 0.5001 | 1400.1 | 32.9
293.15 K, x2 = 0.5999 | 1411.3 | 38
293.15 K, x2 = 0.7 | 1420.8 | 43.2
293.15 K, x2 = 0.7995 | 1428.6 | 49.6
293.15 K, x2 = 0.8985 | 1435.3 | 55.1
298.15 K, x2 = 0 | 1266.4 | 11.9
298.15 K, x2 = 0.1 | 1310.6 | 14.8
298.15 K, x2 = 0.1999 | 1341.3 | 17
298.15 K, x2 = 0.3001 | 1364.6 | 19.9
298.15 K, x2 = 0.4 | 1381.3 | 23.2
298.15 K, x2 = 0.5001 | 1395.3 | 26.7
298.15 K, x2 = 0.5999 | 1406.5 | 30.8
298.15 K, x2 = 0.7 | 1416 | 34.7
298.15 K, x2 = 0.7995 | 1423.8 | 39.8
298.15 K, x2 = 0.8985 | 1430.5 | 44.4
303.15 K, x2 = 0 | 1259.4 | 10.5
303.15 K, x2 = 0.1 | 1306.1 | 12.8
303.15 K, x2 = 0.1999 | 1336.7 | 14.3
303.15 K, x2 = 0.3001 | 1359.1 | 16.5
303.15 K, x2 = 0.4 | 1376.6 | 18.8
303.15 K, x2 = 0.5001 | 1390.5 | 21.5
303.15 K, x2 = 0.5999 | 1401.7 | 24.7
303.15 K, x2 = 0.7 | 1411.1 | 27.3
303.15 K, x2 = 0.7995 | 1419 | 31.1
303.15 K, x2 = 0.8985 | 1425.7 | 35.1
313.15 K, x2 = 0 | 1251.7 | 8.1
313.15 K, x2 = 0.1 | 1297 | 9.7
313.15 K, x2 = 0.1999 | 1327.5 | 10.7
313.15 K, x2 = 0.3001 | 1349.4 | 12.3
313.15 K, x2 = 0.4 | 1367.2 | 13.4
313.15 K, x2 = 0.5001 | 1381.1 | 15.4
313.15 K, x2 = 0.5999 | 1392.2 | 17.6
313.15 K, x2 = 0.7 | 1401.6 | 18.7
313.15 K, x2 = 0.7995 | 1409.4 | 21.2
313.15 K, x2 = 0.8985 | 1416.1 | 24.4
323.15 K, x2 = 0 | 1244 | 6.4
323.15 K, x2 = 0.1 | 1288 | 7.7
323.15 K, x2 = 0.1999 | 1318.3 | 8.4
323.15 K, x2 = 0.3001 | 1340.2 | 9.7
323.15 K, x2 = 0.4 | 1357.8 | 10.2
323.15 K, x2 = 0.5001 | 1371.6 | 11.9
323.15 K, x2 = 0.5999 | 1382.8 | 13.6
323.15 K, x2 = 0.7 | 1392.1 | 14.1
323.15 K, x2 = 0.7995 | 1399.9 | 16
323.15 K, x2 = 0.8985 | 1406.6 | 18.4
333.15 K, x2 = 0 | 1235.4 | 5.2
333.15 K, x2 = 0.1 | 1279 | 5.7
333.15 K, x2 = 0.1999 | 1309 | 6.3
333.15 K, x2 = 0.3001 | 1331 | 7.3
333.15 K, x2 = 0.4 | 1348.4 | 7.5
333.15 K, x2 = 0.5001 | 1362.2 | 9.2
333.15 K, x2 = 0.5999 | 1373.3 | 10.5
333.15 K, x2 = 0.7 | 1382.6 | 10.8
333.15 K, x2 = 0.7995 | 1390.4 | 12.2
333.15 K, x2 = 0.8985 | 1397.1 | 14.1
343.15 K, x2 = 0 | 1225 | 4.3
343.15 K, x2 = 0.1 | 1269.9 | 4.6
343.15 K, x2 = 0.1999 | 1299.8 | 5.1
343.15 K, x2 = 0.3001 | 1321.8 | 5.9
343.15 K, x2 = 0.4 | 1339.1 | 6.2
343.15 K, x2 = 0.5001 | 1352.8 | 7.3
343.15 K, x2 = 0.5999 | 1363.9 | 8.2
343.15 K, x2 = 0.7 | 1373.2 | 8.6
343.15 K, x2 = 0.7995 | 1381 | 9.5
343.15 K, x2 = 0.8985 | 1387.6 | 10.7

O=S1(=O)CCCC1 [sulfolane] + OCC(O)CO
Conditions | mass density [kg/m3] | viscosity [mPa·s]
313.15 K, x2 = 0 | 1251.7 | 8.1
313.15 K, x2 = 0.1002 | 1249.6 | 8.5
313.15 K, x2 = 0.2002 | 1248.8 | 10.5
313.15 K, x2 = 0.3002 | 1248.4 | 14.4
313.15 K, x2 = 0.4001 | 1247.8 | 19.2
313.15 K, x2 = 0.5001 | 1247.5 | 30.4
313.15 K, x2 = 0.5999 | 1247.5 | 46.2
313.15 K, x2 = 0.6999 | 1247.5 | 70.7
313.15 K, x2 = 0.7999 | 1248.5 | 101
313.15 K, x2 = 0.8993 | 1248.9 | 164
323.15 K, x2 = 0 | 1244 | 6.4
323.15 K, x2 = 0.1002 | 1240.9 | 7.2
323.15 K, x2 = 0.2002 | 1240.1 | 8.5
323.15 K, x2 = 0.3002 | 1239.7 | 11.2
323.15 K, x2 = 0.4001 | 1239.2 | 14.4
323.15 K, x2 = 0.5001 | 1239.1 | 22
323.15 K, x2 = 0.5999 | 1239.2 | 32.2
323.15 K, x2 = 0.6999 | 1239.7 | 45.9
323.15 K, x2 = 0.7999 | 1241.2 | 66.5
323.15 K, x2 = 0.8993 | 1241.9 | 103
333.15 K, x2 = 0 | 1235.4 | 5.2
333.15 K, x2 = 0.1002 | 1232.1 | 5.8
333.15 K, x2 = 0.2002 | 1231.3 | 6.6
333.15 K, x2 = 0.3002 | 1231 | 8.3
333.15 K, x2 = 0.4001 | 1230.7 | 10.4
333.15 K, x2 = 0.5001 | 1230.7 | 14.6
333.15 K, x2 = 0.5999 | 1231.1 | 20.3
333.15 K, x2 = 0.6999 | 1232 | 28.8
333.15 K, x2 = 0.7999 | 1233.7 | 41.8
333.15 K, x2 = 0.8993 | 1234.8 | 61.7
343.15 K, x2 = 0 | 1225 | 4.3
343.15 K, x2 = 0.1002 | 1223.2 | 4.7
343.15 K, x2 = 0.2002 | 1222.5 | 5.3
343.15 K, x2 = 0.3002 | 1222.3 | 6.3
343.15 K, x2 = 0.4001 | 1222.3 | 7.7
343.15 K, x2 = 0.5001 | 1222.7 | 10.2
343.15 K, x2 = 0.5999 | 1223.3 | 13.6
343.15 K, x2 = 0.6999 | 1224.1 | 18.5
343.15 K, x2 = 0.7999 | 1226.2 | 26.6
343.15 K, x2 = 0.8993 | 1227.5 | 38
353.15 K, x2 = 0 | 1215 | 3.7
353.15 K, x2 = 0.1002 | 1214.3 | 3.9
353.15 K, x2 = 0.2002 | 1213.7 | 4.3
353.15 K, x2 = 0.3002 | 1213.6 | 4.9
353.15 K, x2 = 0.4001 | 1213.8 | 6
353.15 K, x2 = 0.5001 | 1214.4 | 7.4
353.15 K, x2 = 0.5999 | 1215.3 | 9.8
353.15 K, x2 = 0.6999 | 1216.1 | 12.9
353.15 K, x2 = 0.7999 | 1218.5 | 18
353.15 K, x2 = 0.8993 | 1220.2 | 24.9
363.15 K, x2 = 0 | 1206 | 3.2
363.15 K, x2 = 0.1002 | 1205.3 | 3.3
363.15 K, x2 = 0.2002 | 1204.8 | 3.5
363.15 K, x2 = 0.3002 | 1204.8 | 4
363.15 K, x2 = 0.4001 | 1205.1 | 4.7
363.15 K, x2 = 0.5001 | 1205.9 | 5.8
363.15 K, x2 = 0.5999 | 1206.9 | 7.4
363.15 K, x2 = 0.6999 | 1208 | 9.4
363.15 K, x2 = 0.7999 | 1210.7 | 12.7
363.15 K, x2 = 0.8993 | 1212.7 | 17.1

Source: the NIST ThermoML archive (doi:10.1016/j.tca.2016.07.005)
